Laboratory results: paper PMC5705984, “Membrane-Active Properties of an Amphitropic Peptide from the CyaA Toxin Translocation Region” (Toxins, 2017)
“Also recorded” adds a separate entry of the source.

Assay: Peptide partition from solution to membrane followed by tryptophan intrinsic fluorescence titration
Format: physicochemical
Settings: for ability to interact with / partition into membranes: tryptophan fluorescence and CD; for ΔG (free energy of membrane partition): ΔG=−RTln(KX)
Experimental: Small unilamellar vesicles (SUVs) were prepared at a lipid concentration of 10 mM from POPC and POPG at a molar ratio of 10:0 or 8:2 or from DOPC, DOPE, DOPG, Chol at molar ratio 10:0:0:0, 8:0:2:0, 7:3:0:0, 7:0:0:3, 6:3:0:1, and 4:3:2:1 in buffer A, as previously described. Briefly, SUVs were prepared by reverse-phase evaporation and passed through polycarbonate filters 0.8-, 0.4-, and 0.2-μm (Merck Millipore, Darmstadt, Germany). Vesicles were sonicated using a sonicator tip and their hydrodynamic diameters, dispersity, and charge were checked by dynamic light scattering (DLS) and electrophoretic mobility using a NanoZS instrument (Malvern Instruments, Orsay, France).
Fluorescence titrations were performed with a FP-8200 Jasco spectrofluorimeter, equipped with a Peltier-thermostated ETC-272T (25 °C). A bandwidth of 5 nm was used for both excitation and emission beams. Fluorescence experiments were carried out in a 109.004F-QS cuvette (Hellma, France) with constant stirring. Fluorescence emission was recorded between 300 and 400 nm at a scan rate of 200 nm/min, with an excitation wavelength of 280 nm. Fluorescence emission spectra were corrected for SUV light scattering. Maximum emission wavelength (λmax) and fluorescence intensity ratio at 330 nm over 370 nm (P454-derived peptides) or at 340 nm over 380 nm (CyaA-derived peptides) were used to report peptide-membrane interaction and to measure the partition coefficient KX.
The partition coefficient KX is defined as the ratio of protein concentrations in the lipid and in buffer phases. It is expressed as follows:
KX=PL/PW·[W]/[L] , providing PW/PL=[W]/KX[L] , where PW is the concentration of peptide in solution, PL the concentration of peptides partitioning into lipid membrane, [W] represents the concentration of water, and [L] the lipid concentration.
The fraction of peptide partitioned into the membrane phase, fPL, is equal to: fPL=PL/PT=PL/PL+PW=1/(PW/PL)+1=1/([W]/KX[L])+1
The partition coefficient is related to the apparent dissociation constant as follows: KX * KD = [W] with KD * PL = PW * [L]. The equation fPL is fitted to the experimental data using the KaleidaGraph software, providing KX. The free energy corresponding to the transfer of the peptide from the aqueous phase to the lipid phase is given by the equation ΔG=−RTln(KX) , where ΔG is the free energy in kcal/mol, R the gas constant (R = 1.98 × 10^−3 kcal/mol/K), and T the temperature in Kelvin.

[1] = SUVs DOPC/DOPE/DOPG/Chol 4:3:2:1, Trp fluorescence titration (exc. 280 nm, ratio 340/380 nm), 20 mM HEPES, 150 mM NaCl, pH 7.4, 25 °C
[2] = SUVs DOPC/DOPE/DOPG/Chol 4:3:2:1
[3] = SUVs DOPC/DOPE/DOPG/Chol 4:3:2:1, pH 7.4, 25 °C
[4] = SUVs DOPC/DOPG 8:2, Trp fluorescence titration (exc. 280 nm, ratio 330/370 nm), 20 mM HEPES, 150 mM NaCl, pH 7.4, 25 °C, S.D. within ±5%
[5] = SUVs DOPC/DOPG 8:2, pH 7.4, 25 °C, S.D. ±0.1 kcal/mol
[6] = SUVs DOPC, Trp fluorescence titration (exc. 280 nm, ratio 330/370 nm), 20 mM HEPES, 150 mM NaCl, pH 7.4, 25 °C, S.D. within ±5%
[7] = SUVs DOPC, pH 7.4, 25 °C, S.D. ±0.1 kcal/mol
[8] = SUVs POPC/POPG 8:2, Trp fluorescence titration (exc. 280 nm, ratio 330/370 nm), 20 mM HEPES, 150 mM NaCl, pH 7.4, 25 °C, S.D. within ±5%
[9] = SUVs POPC/POPG 8:2, pH 7.4, 25 °C, S.D. ±0.1 kcal/mol
[10] = SUVs POPC, Trp fluorescence titration (exc. 280 nm, ratio 330/370 nm), 20 mM HEPES, 150 mM NaCl, pH 7.4, 25 °C, S.D. within ±5%
[11] = SUVs POPC, pH 7.4, 25 °C, S.D. ±0.1 kcal/mol

CC[C@H](C)[C@H](NC(=O)[C@H](CCCCN)NC(=O)[C@H](Cc1c[nH]c2ccccc12)NC(=O)[C@H](CC(C)C)NC(=O)[C@H](CC(C)C)NC(=O)[C@H](CC(=O)O)NC(=O)[C@@H](NC(=O)[C@H](CCCNC(=N)N)NC(=O)[C@H](CCC(=O)O)NC(=O)[C@H](CCCNC(=N)N)NC(=O)[C@H](CC(=O)O)NC(=O)[C@H](CC(C)C)NC(C)=O)[C@@H](C)CC)C(=O)N[C@@H](C)C(=O)N[C@@H](CCCNC(=N)N)C(=O)N[C@@H](C)C(=O)NCC(=O)N[C@@H](C)C(=O)N[C@@H](CCCNC(=N)N)C(=O)N[C@@H](CO)C(=O)N[C@@H](C)C(=O)N[C@H](C(=O)NCC(N)=O)C(C)C [Peptide P233]
partition coefficient KX [1]: 60 000 | ability to interact with / partition into membranes [2]: able to interact with membranes | ΔG (free energy of membrane partition) [3]: -6.5 kcal/mol

CC[C@H](C)[C@H](NC(=O)[C@H](C)NC(=O)[C@H](Cc1c[nH]cn1)NC(=O)[C@@H](NC(=O)[C@H](CC(C)C)NC(=O)[C@H](CCCNC(=N)N)NC(=O)[C@H](CCC(N)=O)NC(=O)[C@H](C)NC(=O)[C@H](C)NC(=O)[C@H](C)NC(=O)[C@@H](NC(=O)[C@H](C)NC(=O)[C@H](CCC(N)=O)NC(=O)[C@H](C)NC(=O)CNC(=O)[C@H](CCC(N)=O)NC(=O)[C@H](CC(C)C)NC(=O)[C@H](C)NC(=O)[C@H](CCCNC(=N)N)NC(=O)[C@H](CCC(N)=O)NC(=O)CNC(=O)[C@H](Cc1c[nH]c2ccccc12)NC(=O)[C@H](Cc1c[nH]cn1)NC(=O)[C@H](C)NC(=O)[C@H](CO)NC(=O)[C@H](C)NC(C)=O)C(C)C)C(C)C)C(=O)N[C@@H](C)C(=O)N[C@@H](CC(C)C)C(=O)N[C@@H](CCSC)C(=O)N[C@H](C(=O)N[C@@H](CCC(N)=O)C(N)=O)[C@@H](C)O [Peptide P454]
membrane partition on addition of both POPE and cholesterol to POPC (POPC with POPE and cholesterol, data not shown): totally abolishes the partition | partition coefficient KX (SUVs DOPC/Chol 7:3, Trp fluorescence titration, pH 7.4, 25 °C, S.D. within ±5%): 60 000 | ΔG (free energy of membrane partition) (SUVs DOPC/Chol 7:3, pH 7.4, 25 °C): -6.5 kcal/mol | partition coefficient KX (SUVs DOPC/DOPE 7:3, Trp fluorescence titration, pH 7.4, 25 °C, S.D. within ±5%): 80 000 | ΔG (free energy of membrane partition) (SUVs DOPC/DOPE 7:3, pH 7.4, 25 °C): -6.7 kcal/mol | partition coefficient KX (SUVs DOPC/DOPE/Chol 6:3:1, Trp fluorescence titration, pH 7.4, 25 °C, S.D. within ±5%): 40 000 | ΔG (free energy of membrane partition) (SUVs DOPC/DOPE/Chol 6:3:1, pH 7.4, 25 °C): -6.3 kcal/mol | partition coefficient KX [1]: 300 000 | ability to interact with / partition into membranes [2]: able to interact with membranes | ΔG (free energy of membrane partition) [3]: -7.4 kcal/mol | partition coefficient KX [4]: 1 200 000 | ΔG (free energy of membrane partition) [5]: -8.3 kcal/mol | partition coefficient KX [6]: 505 000 | ΔG (free energy of membrane partition) [7]: -7.8 kcal/mol | partition coefficient KX [8]: 790 000 | ΔG (free energy of membrane partition) [9]: -8 kcal/mol | partition coefficient KX [10]: 150 000 | ΔG (free energy of membrane partition) [11]: -7 kcal/mol | ΔΔG, net contribution of arginine residues to partition compared to the lysine residues of R12K (native P454 vs R12K, all membrane lipid compositions tested): ~0.5 ± 0.2 kcal/mol

Ac-APEVIARADNDVNSSLAHGW-NH2 [Peptide P89]
ability to interact with / partition into membranes [2]: no detectable change of tryptophan fluorescence or CD signature; also recorded: do not

Ac-ASAHWGQAALQGAQAVAAAQALVHAIALMTQ-NH2 [P454 R12A]
partition coefficient KX [4]: 795 000 | ΔG (free energy of membrane partition) [5]: -8 kcal/mol | partition coefficient KX [6]: 610 000 | ΔG (free energy of membrane partition) [7]: -7.9 kcal/mol | partition coefficient KX [8]: 275 000 | ΔG (free energy of membrane partition) [9]: -7.4 kcal/mol | partition coefficient KX [10]: 195 000 | ΔG (free energy of membrane partition) [11]: -7.2 kcal/mol

Ac-ASAHWGQEALQGAQAVAAAQELVHAIALMTQ-NH2 [P454 R12E]
partition coefficient KX [4]: 70 000 | ΔG (free energy of membrane partition) [5]: -6.6 kcal/mol | partition coefficient KX [6]: 85 000 | ΔG (free energy of membrane partition) [7]: -6.7 kcal/mol | partition coefficient KX [8]: 30 000 | ΔG (free energy of membrane partition) [9]: -6.1 kcal/mol | partition coefficient KX [10]: 7 000 | ΔG (free energy of membrane partition) [11]: -5.2 kcal/mol

Ac-ASAHWGQKALQGAQAVAAAQKLVHAIALMTQ-NH2 [P454 R12K]
partition coefficient KX [4]: 750 000 | ΔG (free energy of membrane partition) [5]: -8 kcal/mol | partition coefficient KX [6]: 265 000 | ΔG (free energy of membrane partition) [7]: -7.4 kcal/mol | partition coefficient KX [8]: 215 000 | ΔG (free energy of membrane partition) [9]: -7.3 kcal/mol | partition coefficient KX [10]: 60 000 | ΔG (free energy of membrane partition) [11]: -6.5 kcal/mol

Ac-ASAHWGQQALQGAQAVAAAQQLVHAIALMTQ-NH2 [P454 R12Q]
partition coefficient KX [4]: 310 000 | ΔG (free energy of membrane partition) [5]: -7.5 kcal/mol | partition coefficient KX [6]: 195 000 | ΔG (free energy of membrane partition) [7]: -7.2 kcal/mol | partition coefficient KX [8]: 70 000 | ΔG (free energy of membrane partition) [9]: -6.6 kcal/mol | partition coefficient KX [10]: 35 000 | ΔG (free energy of membrane partition) [11]: -6.2 kcal/mol

Ac-ASAHWGQQALQGAQAVAAAQRLVHAIALMTQ-NH2 [P454 R1Q]
partition coefficient KX [4]: 670 000 | ΔG (free energy of membrane partition) [5]: -7.9 kcal/mol | partition coefficient KX [6]: 340 000 | ΔG (free energy of membrane partition) [7]: -7.5 kcal/mol | partition coefficient KX [8]: 190 000 | ΔG (free energy of membrane partition) [9]: -7.2 kcal/mol | partition coefficient KX [10]: 75 000 | ΔG (free energy of membrane partition) [11]: -6.6 kcal/mol

Ac-ASAHWGQRALQGAQAVAAAQQLVHAIALMTQ-NH2 [P454 R2Q]
partition coefficient KX [4]: 655 000 | ΔG (free energy of membrane partition) [5]: -7.9 kcal/mol | partition coefficient KX [6]: 260 000 | ΔG (free energy of membrane partition) [7]: -7.4 kcal/mol | partition coefficient KX [8]: 150 000 | ΔG (free energy of membrane partition) [9]: -7 kcal/mol | partition coefficient KX [10]: 90 000 | ΔG (free energy of membrane partition) [11]: -6.7 kcal/mol

Ac-AYFEKNLQARHEQLANSDGLRKMLADLQAGWNASS-NH2 [Peptide P737]
partition coefficient KX [1]: 20 000 | ability to interact with / partition into membranes [2]: able to interact with membranes | ΔG (free energy of membrane partition) [3]: -5.8 kcal/mol

Ac-EASSAVAETVSGFFRGW-NH2 [Peptide P509]
partition coefficient KX [1]: 80 000 | ability to interact with / partition into membranes [2]: able to interact with membranes | ΔG (free energy of membrane partition) [3]: -6.7 kcal/mol

Ac-IIEKLANDYARKIDELGW-NH2 [Peptide P717]
partition coefficient KX [1]: 60 000 | ability to interact with / partition into membranes [2]: able to interact with membranes | ΔG (free energy of membrane partition) [3]: -6.5 kcal/mol

Ac-IPAAVLDGIKAVAKEKNW-NH2 [Peptide P19]
ability to interact with / partition into membranes [2]: no detectable change of tryptophan fluorescence or CD signature; also recorded: do not

Ac-LVQQSHYADQLDKLAQESSAYGW-NH2 [Peptide P626]
ability to interact with / partition into membranes [2]: no detectable change of tryptophan fluorescence or CD signature; also recorded: do not

Ac-QEAASLSAAVFGLGEASSAVAETVSGFFRGW-NH2 [Peptide P495]
partition coefficient KX [1]: 130 000 | ability to interact with / partition into membranes [2]: able to interact with membranes | ΔG (free energy of membrane partition) [3]: -6.9 kcal/mol

Ac-TTEISKSALELAAITGNW-NH2 [Peptide P777]
ability to interact with / partition into membranes [2]: no detectable change of tryptophan fluorescence or CD signature; also recorded: do not
